In patent publication US11840686B2, “Modulation of prekallikrein (PKK) expression” (Ionis Pharmaceuticals, Inc., priority 2013, dated 2023):
Strand notation (5' to 3'): a small letter for the sugar, then the base; units joined by * are phosphorothioate-linked, units joined directly phosphodiester-linked; [ ] holds rarer units or linkages, { } end groups; capitals alone tell only the bases. e = 2'-O-(2-methoxyethyl) (MOE); [5mC] = 5-methylcytosine; d = 2'-deoxy (DNA)

Experiments:
[1] = system: human PKK mRNA; test: Antisense inhibition of human PKK mRNA in HepaRG cells, 5,000 nM (Example 2); format: cell-based
Method in brief: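 Percent inhibition of PKK mRNA is relative to untreated control, with qRT-PCR (probe set RTS3454) values adjusted to total RNA by RIBOGREEN. Oligonucleotides, fully phosphorothioate 2′-MOE gapmers, were delivered at 5,000 nM by electroporation into 20,000 HepaRG cells/well for about 24 h.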

[2] = system: human PKK mRNA; test: Dose-dependent antisense inhibition of human PKK in HepaRG cells, 0.19-5.00 uM (Example 5); format: cell-based; conditions: for percent inhibition of PKK mRNA, 0.19 μM: 0.19 μM antisense oligonucleotide; for percent inhibition of PKK mRNA, 0.56 μM: 0.56 μM antisense oligonucleotide; for percent inhibition of PKK mRNA, 1.67 μM: 1.67 μM antisense oligonucleotide; for percent inhibition of PKK mRNA, 5.00 μM: 5.00 μM antisense oligonucleotide
Method in brief: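 PKK mRNA knockdown was measured by real-time PCR (primer probe set RTS3454) about 16 h after electroporating 20,000 HepaRG cells per well with oligonucleotide at four doses from 0.19 to 5.00 μM. Levels were adjusted to RIBOGREEN-measured total RNA, and IC50 values were calculated.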

[3] = HepaRG cells, electroporation, approximately 16 hours, Table 41
[4] = 4 point dose response, HepaRG cells, Table 41
[5] = Table 34, HepaRG, electroporation, ~16 h
[6] = Table 34, PKK mRNA, HepaRG, electroporation, ~16 h
[7] = Table 9 experiment, HepaRG cells, 20,000 cells per well, electroporation with 5,000 nM antisense oligonucleotide, approx. 24 hours, PKK mRNA by RT-PCR (RTS3454), relative to untreated control cells
[8] = Table 10 experiment, HepaRG cells, 20,000 cells per well, electroporation with 5,000 nM antisense oligonucleotide, approx. 24 hours, PKK mRNA by RT-PCR (RTS3454), relative to untreated control cells
[9] = HepaRG cells, electroporation, approximately 16 hours, Table 39
[10] = HepaRG cells, electroporation, approximately 16 hours, Table 36
[11] = HepaRG cells, electroporation, approximately 16 hours, Table 37
[12] = 4 point dose response, HepaRG cells, Table 37
[13] = HepaRG cells, electroporation, 5,000 nM antisense oligonucleotide, approx. 24 hours, primer probe set RTS3454, relative to untreated control cells, Table 11
[14] = HepaRG cells, electroporation, approximately 16 hours, Table 40
[15] = 4 point dose response, HepaRG cells, Table 40
[16] = HepaRG cells, electroporation, approximately 16 hours, Table 38
[17] = 4 point dose response, HepaRG cells, Table 38
[18] = Table 13, human PKK mRNA in HepaRG cells, 5-10-5 gapmers
[19] = human PKK mRNA in HepaRG cells, 5-10-5 gapmers, Table 14

Substance: 547445 (antisense eG*e[5mC]*e[5mC]*eA*e[5mC]*dT*dA*dT*dA*dG*dA*dT*dG*d[5mC]*dG*e[5mC]*e[5mC]*eA*eA*eA) [compound 547445]
- % inhibition ([1]; Table 8, HepaRG cells, electroporation with 5,000 nM antisense oligonucleotide, approx. 24 hours, PKK mRNA by RT-PCR (RTS3454), relative to untreated control cells): 97%
- percent inhibition of PKK at 5.00 μM [2, 3]: 91%
- percent inhibition of PKK at 0.19 0μM [2, 3]: 80%
- percent inhibition of PKK at 0.56 0μM [2, 3]: 87%
- percent inhibition of PKK at 1.67 1μM [2, 3]: 98%
- IC50 [2, 4]: < 200 nM
- percent inhibition of PKK at 0.19 μM [2, 5]: 41%
- percent inhibition of PKK at 0.56 μM [2, 5]: 75%
- percent inhibition of PKK at 1.67 μM [2, 5]: 82%
- percent inhibition of PKK at 5.00 μM [2, 5]: 88%
- IC50 [2, 6]: 200 nM

Substance: 547453 (antisense eT*e[5mC]*eA*eT*eG*dA*dT*dT*d[5mC]*d[5mC]*d[5mC]*dT*dT*d[5mC]*dT*eG*eA*eG*eA*e[5mC]) [compound 547453]
- % inhibition [1, 7]: 81%
- % inhibition [1, 8]: 81%
- percent inhibition of PKK at 0.19 μM [2, 9]: 25%
- percent inhibition of PKK at 0.56 μM [2, 9]: 40%
- percent inhibition of PKK at 1.67 μM [2, 9]: 54%
- percent inhibition of PKK at 5.00 μM [2, 9]: 92%
- IC50 ([2]; 4 point dose response, HepaRG cells, Table 39): 800 nM

Substance: 547454 (antisense eT*eA*eT*e[5mC]*eA*dT*dG*dA*dT*dT*d[5mC]*d[5mC]*d[5mC]*dT*dT*e[5mC]*eT*eG*eA*eG) [compound 547454]
- % inhibition [1, 7]: 92%
- % inhibition [1, 8]: 78%
- percent inhibition of PKK at 0.19 μM [2, 10]: 19%
- percent inhibition of PKK at 0.56 μM [2, 10]: 40%
- percent inhibition of PKK at 1.67 μM [2, 10]: 58%
- percent inhibition of PKK at 5.00 μM [2, 10]: 92%
- IC50 ([2]; 4 point dose response, HepaRG cells, Table 36): 900 nM

Substance: 547456 (antisense eG*e[5mC]*eG*eA*eT*dA*dT*d[5mC]*dA*dT*dG*dA*dT*dT*d[5mC]*e[5mC]*e[5mC]*eT*eT*e[5mC]) [compound 547456]
- % inhibition [1, 7]: 89%
- % inhibition [1, 8]: 96%
- percent inhibition of PKK at 0.19 μM [2, 5]: 12%
- percent inhibition of PKK at 0.56 μM [2, 5]: 67%
- percent inhibition of PKK at 1.67 μM [2, 5]: 66%
- percent inhibition of PKK at 5.00 μM [2, 5]: 80%
- IC50 [2, 6]: 1000 nM

Substance: 547464 (antisense eG*e[5mC]*eT*eT*eG*dT*dG*dT*d[5mC]*dA*d[5mC]*d[5mC]*dT*dT*dT*eG*eG*eA*eA*eG) [compound 547464]
- % inhibition [1, 7]: 95%
- % inhibition [1, 8]: 84%
- percent inhibition of PKK at 0.19 μM [2, 5]: 21%
- percent inhibition of PKK at 0.56 μM [2, 5]: 52%
- percent inhibition of PKK at 1.67 μM [2, 5]: 67%
- percent inhibition of PKK at 5.00 μM [2, 5]: 97%
- IC50 [2, 6]: 600 nM

Substance: 547483 (antisense eT*e[5mC]*e[5mC]*e[5mC]*e[5mC]*d[5mC]*dT*dT*d[5mC]*dT*dT*dT*dA*dT*dA*eG*e[5mC]*e[5mC]*eA*eG) [compound 547483]
- % inhibition [1, 7]: 71%
- % inhibition [1, 8]: 77%
- percent inhibition of PKK at 0.19 μM [2, 11]: 0%
- percent inhibition of PKK at 0.56 μM [2, 11]: 9%
- percent inhibition of PKK at 1.67 μM [2, 11]: 49%
- percent inhibition of PKK at 5.00 μM [2, 11]: 71%
- IC50 [2, 12]: 2100 nM

Substance: 547493 (antisense eT*e[5mC]*eT*eG*eA*dG*d[5mC]*dT*dT*dT*dT*d[5mC]*d[5mC]*dA*dT*e[5mC]*eA*e[5mC]*eT*eG) [compound 547493]
- % inhibition [1, 13]: 72%
- percent inhibition of PKK at 0.19 μM [2, 14]: 0%
- percent inhibition of PKK at 0.56 μM [2, 14]: 26%
- percent inhibition of PKK at 1.67 μM [2, 14]: 64%
- percent inhibition of PKK at 5.00 μM [2, 14]: 77%
- IC50 [2, 15]: 1300 nM

Substance: 547514 (antisense eA*eG*eA*eT*eG*d[5mC]*d[5mC]*dA*d[5mC]*dT*d[5mC]*dT*d[5mC]*d[5mC]*dA*eT*eG*e[5mC]*eT*eT) [compound 547514]
- % inhibition [1, 13]: 85%
- percent inhibition of PKK at 0.19 μM [2, 16]: 18%
- percent inhibition of PKK at 0.56 μM [2, 16]: 8%
- percent inhibition of PKK at 1.67 μM [2, 16]: 51%
- percent inhibition of PKK at 5.00 μM [2, 16]: 80%
- IC50 [2, 17]: 1900 nM

Substance: 547520 (antisense eT*e[5mC]*eA*eG*e[5mC]*d[5mC]*dA*dG*dA*d[5mC]*dA*dT*dT*dG*dT*e[5mC]*e[5mC]*eT*e[5mC]*eA) [compound 547520]
- % inhibition [1, 13]: 76%
- percent inhibition of PKK at 0.19 μM [2, 14]: 0%
- percent inhibition of PKK at 0.56 μM [2, 14]: 25%
- percent inhibition of PKK at 1.67 μM [2, 14]: 66%
- percent inhibition of PKK at 5.00 μM [2, 14]: 64%
- IC50 [2, 15]: 1100 nM

Substance: 547564 (e[5mC]*e[5mC]*e[5mC]*eT*e[5mC]*dT*dG*dT*d[5mC]*dT*dT*dA*dG*dA*dT*eG*eT*e[5mC]*e[5mC]*eA; antisense) [compound 547564]
- % inhibition [1, 18]: 94%
- percent inhibition of PKK at 5.00 μM [2, 3]: 97%
- percent inhibition of PKK at 0.19 0μM [2, 3]: 46%
- percent inhibition of PKK at 0.56 0μM [2, 3]: 66%
- percent inhibition of PKK at 1.67 1μM [2, 3]: 90%
- IC50 [2, 4]: 200 nM
- percent inhibition of PKK at 0.19 μM [2, 5]: 51%
- percent inhibition of PKK at 0.56 μM [2, 5]: 48%
- percent inhibition of PKK at 1.67 μM [2, 5]: 82%
- percent inhibition of PKK at 5.00 μM [2, 5]: 90%
- IC50 [2, 6]: 200 nM

Substance: 547575 (eG*eG*eG*eA*eA*dA*d[5mC]*dT*d[5mC]*dT*dT*dT*d[5mC]*d[5mC]*dT*e[5mC]*eG*e[5mC]*e[5mC]*e[5mC]; antisense) [compound 547575]
- % inhibition [1, 18]: 89%
- percent inhibition of PKK at 0.19 μM [2, 11]: 0%
- percent inhibition of PKK at 0.56 μM [2, 11]: 34%
- percent inhibition of PKK at 1.67 μM [2, 11]: 82%
- percent inhibition of PKK at 5.00 μM [2, 11]: 93%
- IC50 [2, 12]: 1100 nM

Substance: 547584 (eG*eT*eA*eT*e[5mC]*dA*d[5mC]*dT*dG*dT*d[5mC]*d[5mC]*dT*dA*dT*eA*eT*e[5mC]*eA*e[5mC]; antisense) [compound 547584]
- % inhibition [1, 19]: 85%
- percent inhibition of PKK at 0.19 μM [2, 16]: 26%
- percent inhibition of PKK at 0.56 μM [2, 16]: 34%
- percent inhibition of PKK at 1.67 μM [2, 16]: 76%
- percent inhibition of PKK at 5.00 μM [2, 16]: 86%
- IC50 [2, 17]: 700 nM
- percent inhibition of PKK mRNA, 0.19 μM ([2]; HepaRG cells): 0%
- percent inhibition of PKK mRNA, 0.56 μM ([2]; HepaRG cells): 21%
- percent inhibition of PKK mRNA, 1.67 μM ([2]; HepaRG cells): 64%
- percent inhibition of PKK mRNA, 5.00 μM ([2]; HepaRG cells): 92%
- IC50 ([2]; HepaRG cells, 0.19-5.00 μM): 1300 nM

Substance: 547585 (eA*eA*e[5mC]*eA*eG*dT*dA*dT*d[5mC]*dA*d[5mC]*dT*dG*dT*d[5mC]*e[5mC]*eT*eA*eT*eA; antisense) [compound 547585]
- % inhibition [1, 19]: 85%
- percent inhibition of PKK at 0.19 μM [2, 16]: 42%
- percent inhibition of PKK at 0.56 μM [2, 16]: 57%
- percent inhibition of PKK at 1.67 μM [2, 16]: 70%
- percent inhibition of PKK at 5.00 μM [2, 16]: 95%
- IC50 [2, 17]: 400 nM
- percent inhibition of PKK mRNA, 0.19 μM ([2]; HepaRG cells): 0%
- percent inhibition of PKK mRNA, 0.56 μM ([2]; HepaRG cells): 46%
- percent inhibition of PKK mRNA, 1.67 μM ([2]; HepaRG cells): 89%
- percent inhibition of PKK mRNA, 5.00 μM ([2]; HepaRG cells): 93%
- IC50 ([2]; HepaRG cells, 0.19-5.00 μM): 800 nM

Substance: 547587 (e[5mC]*eT*eA*eT*eA*dA*d[5mC]*dA*dG*dT*dA*dT*d[5mC]*dA*d[5mC]*eT*eG*eT*e[5mC]*e[5mC]; antisense) [compound 547587]
- % inhibition [1, 19]: 96%
- percent inhibition of PKK at 5.00 μM [2, 3]: 97%
- percent inhibition of PKK at 0.19 0μM [2, 3]: 38%
- percent inhibition of PKK at 0.56 0μM [2, 3]: 64%
- percent inhibition of PKK at 1.67 1μM [2, 3]: 91%
- IC50 [2, 4]: 300 nM
- percent inhibition of PKK at 0.19 μM [2, 5]: 20%
- percent inhibition of PKK at 0.56 μM [2, 5]: 62%
- percent inhibition of PKK at 1.67 μM [2, 5]: 84%
- percent inhibition of PKK at 5.00 μM [2, 5]: 86%
- IC50 [2, 6]: 500 nM
